Consider five compounds from patent EP0308065A2, “Therapeutic nucleosides” (priority 1987, dated 1989).

A short description of series [1]: growth inhibition of uninfected mammalian cells (D98). The series is classed as cell-based. The following applies: three days exposure, D-98 cells (human), read-out: Cell Toxicity (% of control at 100µm) D-98 Cells. How it is done: (§1) The capability of candidate compounds to inhibit the growth of D98 cells (human) and L cells (murine) was measured by determination of cell number following three days exposure of a standard number of cells to various dilutions of compound (Rideout, J. L., Krenitsky, T.A., Koszalka, G.W., Cohn, N.K., Chao, E.Y. Elion, G.B., Latter, V.S., and Williams, R.B. (1982) J. Med Chem. 25: 1040-1044). The cell number was then compared to the number obtained in the absence of compound. Cell enumeration was performed by either direct particle counts following trypsinization of the monolayer, or by spectrophotometric determination of the amount of vital stain taken up by the cells.
(§2) The concentration of compound resulting in 50% of control values (IC50) was calculated either by direct interpolation from graphs of the log of the compound concentration versus the percent of control value, or from a computer program which analyses the data according to the same algorithm. Data in the range of 20% to 80% of control were used in these calculations.

Series [2] is described as follows: growth inhibition of uninfected mammalian cells (L cells). The series is classed as cell-based. The following applies: mouse, three days exposure, L cells (murine), read-out: Cell Toxicity (% of control at 100µm) L-Cells. How it is done: as §1, §2
Series [3] can be described thus: oral bioavailability: urinary recovery as acyclovir after gavage. The following applies: Long Evans rats, dose equivalent to 25 mg/kg acyclovir, urine collected 24 and 48 hours post-dose.
Method: Long Evans Rats were adminstered the compound to be tested by gavage at a dose equivalent to 25 mg/kg acyclovir. The urine was collected for 24 and 48 hours post-dose, ultrafiltered, and analysed by reverse-phase high-pressure liquid chromatography. The oral bioavailability of the compound was expressed as the percent of the dose excreted in the urine as acyclovir.
The conditions of series [4]: humans, after oral administration (background statement); cited from earlier work.
Series [5] concerns Herpes Simplex Virus (HSV 1). Briefly: plaque reduction assay of HSV 1 in monolayers of Vero cells. The series is classed as cell-based. The settings on record: HSV 1, Vero cells, read-out: IC₅₀. The protocol:
Herpes Simplex Virus (HSV 1) was assayed in monolayers of Vero cells in multiwell trays. Activity of compounds was determined in the plaque reduction assay, in which a cell monolayer was infected with a suspension of HSV 1, and then overlaid with nutrient agarose in the form of a gel to ensure that there was no spread of virus throughout the culture. A range of concentrations of compound of known molarity was incorporated in the nutrient agarose overlay. Plaque numbers at each concentration were expressed as percentages of the control and a dose-response curve was drawn. From this curve the 50% inhibitory concentration (IC₅₀) was estimated.

pIC50: −log10 of the molar value. Where a name gives a salt, the structure may show the parent alone.

With `CC(C)[C@H](N)C(=O)OCCOCn1cnc2c(=O)[nH]c(N)nc21` [Example 1B, 2-(2-Amino-1,6-dihydro-6-oxo-9H(purin-9-yl)methoxy) ethyl L-valinate hydrochloride monohydrate], the activity at 72 h, 100 µM in series [1] is 91%; in series [2], 85%.

In the case of `C[C@H](N)C(=O)OCCOCn1cnc2c(=O)[nH]c(N)nc21` [L -alanyl ester of ACV], the “Urinary Recovery (% of dose) as acyclovir” value (“Urinary Recovery (% of dose)” below) in series [3] is 34 % of dose.

Turning to `Nc1nc2c(ncn2COCCO)c(=O)[nH]1` [Acyclovir, 9-(2-Hydroxyethoxymethyl)guanine], the activity at 72 h, 100 µM amounted to 99% in series [1] and 72% in series [2]. For the same compound, the “recovery in the urine” value in series [4] is reported as 20%. For the same compound, the pIC50 in series [5] was 7.00 to 7.10.

Turning to `CC[C@H](C)[C@H](N)C(=O)OCCOCn1cnc2c(=O)[nH]c(N)nc21` [Example 2, 2-(2-amino-1,6-dihydro-6-oxo-9H(purin-9-yl)methoxy)ethyl L-isoleucinate hydrochloride], the activity at 72 h, 100 µM in series [1] came out at 80%; in series [2], 83%. Besides, the “Urinary Recovery (% of dose)” value in series [3] is listed as 50 % of dose. Besides, the pIC50 in series [5] is 5.42.

On to `NCC(=O)OCCOCn1cnc2c(=O)[nH]c(N)nc21` [Glycyl ester of ACV], for which the “Urinary Recovery (% of dose)” value in series [3] was 30 % of dose.
